Results published in patent US20100144722A1, “NOVEL HETEROCYCLIC COMPOUNDS AS GATA MODULATORS” (Dr. Reddy's Laboratories Ltd., priority 2008, published 2010).

Tested on: GATA1
Assay: GATA Assay (GATA luciferase reporter in transfected HepG2 cells)
Assay type: cell-based, Human
Settings: HepG2 cells transfected with GATA Translucent Reporter Vector, luciferase normalized to total protein
Experimental: Human HepG2 (ATCC) cells were grown in Eagle's Minimum Essential Media (MEM) containing 10% heat inactivated Fetal Bovine Serum (FBS) (Invitrogen) and 5 mL Penicillin-Streptomycin (Invitrogen) in T75 flasks (Corning) in a 37° C./5% CO2 tissue culture incubator (Thermo Electron Corporation) prior to the study. 96-well plates (Corning) were seeded in MEM containing 10% FBS to yield ˜50% confluency. The following day, cells were transfected using FuGENE 6 transfection reagent (Roche) and […] GATA Translucent Reporter Vector (Panomics) according the manufacturer's (Roche) protocol and incubated for about 10-19 h. The next day, the cells were treated with equal volumes of vehicle, dimethyl sulfoxide (DMSO) (Hybri-Max Sterile Filtered Sigma Aldrich) or compounds of formula (I) (in DMSO) diluted in MEM containing 1% FBS. The treated cells were incubated about 8-19 h. The next day the treatment media was removed and the cells were lysed and assayed for luciferase activity using the luciferase assay system (Promega) and using the Envision plate reader (Perkin Elmer). The lysates were also used to measure total protein content with the MicroBCA protein assay kit (Pierce) using the Multiskan Ascent plate reader at 570 nm. Luciferase values were normalized to total protein and fold induction was calculated.
Compounds that show an increase of ≧40% in luciferase levels at ≦20 μm concentration were considered as GATA activators.

Structure (SMILES)	GATA1 Activation (Fold Change Vs Control) (5μ compound) [Fold]	GATA1 Activation (Fold Change Vs Control) (10μ compound) [Fold]
O=C(O)C1(c2ccc(Nc3nc(NC4CCCC4)cc(-c4ccccc4)n3)cc2)CCC1 [Example 16, 1-[4-(4-cyclopentylamino-6-phenyl-pyrimidin-2-ylamino)-phenyl]-cyclobutane-carboxylic acid]	2.44	2.13
O=C(O)C1(c2ccc(Nc3nc(NC4CCCC4)cc(C4CCCC4)n3)cc2)CCC1 [Example 25, 1-[4-(4-cyclopentyl-6-cyclopentylamino-pyrimidin-2-ylamino)-phenyl]-cyclobutanecarboxylic acid]	3.69	3.32
Cc1noc(C)c1-c1cc(N2CCOCC2)nc(Nc2ccc(C3(C(=O)O)CCC3)cc2)n1 [Example 30, 1-{4-[4-(3,5-dimethyl-isoxazol-4-yl)-6-morpholin-4-yl-pyrimidin-2-ylamino]-phenyl}-cyclobutanecarboxylic acid]	1.64	1.74
CC(C)(C)Nc1nc(Nc2ccc(C3(C(=O)O)CCC3)cc2)cc(-c2ccccc2)n1 [Example 55, 1-[4-(2-tert-butylamino-6-phenyl-pyrimidin-4-ylamino)-phenyl]-cyclobutane-carboxylic acid]	2.86	2.40
CC(C)Oc1cc(-c2ccccc2)nc(Nc2ccc(C3(C(=O)O)CCC3)cc2)n1 [Example 68, 1-[4-(4-isopropoxy-6-phenyl-pyrimidin-2-ylamino)-phenyl]-cyclobutane-carboxylic acid]	2.57	2.44
